How the values were obtained:
Assay type in all cases: functional
[1] = test system: SN12C; experiment: Growth inhibition of human SN12C cells after 48 hrs by sulforhodamine B assay; conditions: for TGI: read-out: pTGI (converted)
[2] = test system: HOP-62; experiment: Growth inhibition of human HOP62 cells after 48 hrs by sulforhodamine B assay; conditions: HOP-62, 48 h; for TGI: read-out: pTGI (converted)
[3] = test system: MDA-MB-231; experiment: Growth inhibition of human MDA-MB-231/ATCC cells after 48 hrs by sulforhodamine B assay; conditions: MDA-MB-231, 48 h; for CC50: read-out: pLC50 (the source's name) (converted); for TGI: read-out: pTGI (converted)
[4] = test system: OVCAR-8; experiment: Growth inhibition of human OVCAR8 cells after 48 hrs by sulforhodamine B assay; conditions: OVCAR-8, 48 h; for TGI: read-out: pTGI (converted)
[5] = test system: SK-MEL-5; experiment: Growth inhibition of human SK-MEL-5 cells after 48 hrs by sulforhodamine B assay; conditions: SK-MEL-5, 48 h; for TGI: read-out: pTGI (converted)
[6] = test system: NCI-H460; experiment: Growth inhibition of human NCI-H460 cells after 48 hrs by sulforhodamine B assay; conditions: NCI-H460, 48 h; for TGI: read-out: pTGI (converted)
[7] = test system: IGROV-1; experiment: Growth inhibition of human IGROV1 cells after 48 hrs by sulforhodamine B assay; conditions: IGROV-1, 48 h; for TGI: read-out: pTGI (converted)
[8] = test system: T47D; experiment: Growth inhibition of human T47D cells after 48 hrs by sulforhodamine B assay; conditions: for TGI: read-out: pTGI (converted)
[9] = test system: RXF 393; experiment: Growth inhibition of human RXF393 cells after 48 hrs by sulforhodamine B assay; conditions: RXF 393, 48 h; for TGI: read-out: pTGI (converted)
[10] = test system: PC-3; experiment: Growth inhibition of human PC3 cells after 48 hrs by sulforhodamine B assay; conditions: PC-3, 48 h; for CC50: read-out: pLC50 (the source's name) (converted); for TGI: read-out: pTGI (converted)
[11] = test system: KM12; experiment: Growth inhibition of human KM12 cells after 48 hrs by sulforhodamine B assay; conditions: KM12, 48 h; for TGI: read-out: pTGI (converted)
[12] = test system: OVCAR-5; experiment: Growth inhibition of human OVCAR5 cells after 48 hrs by sulforhodamine B assay; conditions: OVCAR-5, 48 h; for TGI: read-out: pTGI (converted)
[13] = test system: CCRF-CEM; experiment: Growth inhibition of human CCRF-CEM cells after 48 hrs by sulforhodamine B assay; conditions: for TGI: read-out: pTGI (converted)
[14] = test system: SF-295; experiment: Growth inhibition of human SF295 cells after 48 hrs by sulforhodamine B assay; conditions: SF-295, 48 h; for TGI: read-out: pTGI (converted)
[15] = test system: UACC-62; experiment: Growth inhibition of human UACC62 cells after 48 hrs by sulforhodamine B assay; conditions: UACC-62, 48 h; for TGI: read-out: pTGI (converted)
[16] = test system: NCI-H322M; experiment: Growth inhibition of human NCI-H322M cells after 48 hrs by sulforhodamine B assay; conditions: for TGI: read-out: pTGI (converted)
[17] = test system: DU-145; experiment: Growth inhibition of human DU145 cells after 48 hrs by sulforhodamine B assay; conditions: DU-145, 48 h; for TGI: read-out: pTGI (converted)
[18] = test system: NCI-H23; experiment: Growth inhibition of human NCI-H23 cells after 48 hrs by sulforhodamine B assay; conditions: NCI-H23, 48 h; for TGI: read-out: pTGI (converted)
[19] = test system: HCT-15; experiment: Growth inhibition of human HCT15 cells after 48 hrs by sulforhodamine B assay; conditions: HCT-15, 48 h; for TGI: read-out: pTGI (converted)
[20] = test system: HOP-92; experiment: Growth inhibition of human HOP92 cells after 48 hrs by sulforhodamine B assay; conditions: HOP-92, 48 h; for TGI: read-out: pTGI (converted)
[21] = test system: SNB-75; experiment: Growth inhibition of human SNB75 cells after 48 hrs by sulforhodamine B assay; conditions: SNB-75, 48 h; for TGI: read-out: pTGI (converted)
[22] = test system: SNB-19; experiment: Growth inhibition of human SNB19 cells after 48 hrs by sulforhodamine B assay; conditions: SNB-19, 48 h; for TGI: read-out: pTGI (converted)
[23] = test system: SK-OV-3; experiment: Growth inhibition of human SKOV3 cells after 48 hrs by sulforhodamine B assay; conditions: SK-OV-3, 48 h; for TGI: read-out: pTGI (converted)
[24] = test system: A549; experiment: Growth inhibition of human A549 cells after 48 hrs by sulforhodamine B assay; conditions: A549, 48 h; for TGI: read-out: pTGI (converted)
[25] = test system: Malme-3M; experiment: Growth inhibition of human MALME-3M cells after 48 hrs by sulforhodamine B assay; conditions: for TGI: read-out: pTGI (converted)
[26] = test system: 786-0; experiment: Growth inhibition of human 786-0 cells after 48 hrs by sulforhodamine B assay; conditions: 786-0, 48 h; for CC50: read-out: pLC50 (the source's name) (converted); for TGI: read-out: pTGI (converted)

Compound: COCOc1cc(/C=C/c2cc(C=O)c3c(c2)C[C@@H]2C(C)(C)[C@H](O)CC[C@@]2(C)O3)cc(OC)c1C/C=C(\C)CCC=C(C)C
- GI50 [1]: 14.8 µM
- LC50 [1]: > 100 µM
- TGI [1]: > 100 µM
- GI50 [2]: 4.9 µM
- LC50 [2]: > 100 µM
- TGI [2]: > 100 µM
- GI50 [3]: 3.39 µM
- CC50 [3]: > 100 µM
- TGI [3]: 15.8 µM
- GI50 [4]: 17 µM
- LC50 [4]: > 100 µM
- TGI [4]: 61.7 µM
- GI50 [5]: 7.24 µM
- LC50 [5]: 58.9 µM
- TGI [5]: 22.9 µM
- GI50 [6]: 5.89 µM
- LC50 (concentration killing 50% of cells) [6]: > 100 µM
- TGI [6]: > 100 µM
- GI50 [7]: 9.77 µM
- LC50 [7]: > 100 µM
- TGI [7]: > 100 µM
- GI50 [8]: 13.5 µM
- LC50 [8]: > 100 µM
- TGI [8]: > 100 µM
- GI50 [9]: 0.309 µM
- LC50 (50% lethal concentration) [9]: 12.3 µM
- TGI [9]: 1.32 µM
- GI50 [10]: 8.13 µM
- CC50 [10]: > 100 µM
- TGI [10]: > 100 µM
- GI50 [11]: 7.94 µM
- LC50 [11]: > 100 µM
- TGI [11]: 75.9 µM
- GI50 [12]: 11.7 µM
- LC50 [12]: > 100 µM
- TGI [12]: > 100 µM
- GI50 [13]: 4.37 µM
- LC50 [13]: > 100 µM
- TGI [13]: > 100 µM
- LC50 [14]: > 100 µM
- GI50 ([14]; read-out: GI50): 1.2 µM
- GI50 ([14]; read-out: pGI50 (converted)): 1.2 µM
- TGI [14]: 4.37 µM
- GI50 [15]: 4.07 µM
- LC50 (50% lethal concentration) [15]: > 100 µM
- TGI [15]: > 100 µM
- GI50 [16]: 89.1 µM
- LC50 [16]: > 100 µM
- TGI [16]: > 100 µM
- GI50 [17]: 13.5 µM
- LC50 [17]: > 100 µM
- TGI [17]: > 100 µM
- GI50 [18]: 11 µM
- LC50 [18]: > 100 µM
- TGI [18]: > 100 µM
- GI50 [19]: 3.31 µM
- LC50 [19]: > 100 µM
- TGI [19]: 51.3 µM
- GI50 [20]: 15.8 µM
- LC50 [20]: > 100 µM
- TGI [20]: > 100 µM
- GI50 [21]: 1.62 µM
- LC50 [21]: > 100 µM
- TGI [21]: > 100 µM
- GI50 [22]: 16.6 µM
- LC50 [22]: > 100 µM
- TGI [22]: > 100 µM
- GI50 [23]: 41.7 µM
- LC50 [23]: > 100 µM
- TGI [23]: > 100 µM
- LC50 [24]: > 100 µM
- GI50 ([24]; read-out: GI50): 7.8 µM
- GI50 ([24]; read-out: pGI50 (converted)): 7.76 µM
- TGI [24]: > 100 µM
- GI50 [25]: 7.94 µM
- LC50 [25]: > 100 µM
- TGI [25]: 95.5 µM
- GI50 [26]: 1.02 µM
- CC50 [26]: > 100 µM
- TGI [26]: > 100 µM

Compound: COCOc1cc(/C=C/c2cc(CO)c3c(c2)C[C@@H]2C(C)(C)[C@H](O)CC[C@@]2(C)O3)cc(OC)c1C/C=C(\C)CCC=C(C)C
- GI50 [1]: 6.61 µM
- LC50 [1]: 58.9 µM
- TGI [1]: 22.4 µM
- GI50 [2]: 0.537 µM
- LC50 [2]: 64.6 µM
- TGI [2]: 11 µM
- GI50 [3]: 1.62 µM
- CC50 [3]: 57.5 µM
- TGI [3]: 14.5 µM
- GI50 [4]: 11 µM
- LC50 [4]: 77.6 µM
- TGI [4]: 29.5 µM
- GI50 [5]: 2.24 µM
- LC50 [5]: 40.7 µM
- TGI [5]: 12.3 µM
- GI50 [6]: 0.871 µM
- LC50 (concentration killing 50% of cells) [6]: > 100 µM
- TGI [6]: > 100 µM
- GI50 [7]: 15.8 µM
- LC50 [7]: > 100 µM
- TGI [7]: > 100 µM
- GI50 [8]: 11.5 µM
- LC50 [8]: > 100 µM
- TGI [8]: 49 µM
- GI50 [9]: 0.0661 µM
- LC50 (50% lethal concentration) [9]: 2.69 µM
- TGI [9]: 0.355 µM
- GI50 [10]: 0.912 µM
- CC50 [10]: > 100 µM
- TGI [10]: > 100 µM
- GI50 [11]: 4.27 µM
- LC50 [11]: 57.5 µM
- TGI [11]: 21.4 µM
- GI50 [12]: 6.61 µM
- LC50 [12]: > 100 µM
- TGI [12]: 41.7 µM
- GI50 [13]: 1.02 µM
- LC50 [13]: > 100 µM
- TGI [13]: > 100 µM
- LC50 [14]: 33.9 µM
- GI50 ([14]; read-out: GI50): 0.15 µM
- GI50 ([14]; read-out: pGI50 (converted)): 0.151 µM
- TGI [14]: 0.501 µM
- GI50 [15]: 0.55 µM
- LC50 (50% lethal concentration) [15]: 57.5 µM
- TGI [15]: 10.7 µM
- GI50 [16]: 22.4 µM
- LC50 [16]: > 100 µM
- TGI [16]: 91.2 µM
- GI50 [17]: 3.8 µM
- LC50 [17]: 52.5 µM
- TGI [17]: 20 µM
- GI50 [18]: 4.17 µM
- LC50 [18]: 74.1 µM
- TGI [18]: 24.5 µM
- GI50 [19]: 1.35 µM
- LC50 [19]: 81.3 µM
- TGI [19]: 10.2 µM
- GI50 [20]: 2.57 µM
- LC50 [20]: 45.7 µM
- TGI [20]: 16.6 µM
- GI50 [21]: 0.263 µM
- LC50 [21]: > 100 µM
- TGI [21]: 14.8 µM
- GI50 [22]: 11.2 µM
- LC50 [22]: 77.6 µM
- TGI [22]: 29.5 µM
- GI50 [23]: 19.5 µM
- LC50 [23]: > 100 µM
- TGI [23]: 81.3 µM
- LC50 [24]: > 100 µM
- GI50 ([24]; read-out: GI50): 1.41 µM
- GI50 ([24]; read-out: pGI50 (converted)): 0.977 µM
- TGI [24]: 26.9 µM
- GI50 [25]: 11.7 µM
- LC50 [25]: > 100 µM
- TGI [25]: 67.6 µM
- GI50 [26]: 0.158 µM
- CC50 [26]: 8.32 µM
- TGI [26]: 0.912 µM

From ChEMBL document CHEMBL1926642, “Relevance of the C-5 position to schweinfurthin induced cytotoxicity” (2011)
